# Assay results published in a melting point compilation (Tetko et al.; mined from patent text by program, amines drawn as free bases though some values may be those of a salt).
row,melting point [°C],SMILES
1,126 to 128,O=C(Nc1ccc(NCc2ccccc2)cc1)C(=O)N1CCC(Cc2ccccc2)CC1
2,138 to 140,NCc1ccc(CC(N)=O)cc1
3,136 to 142,CC(C)(C)c1ccc(C(=O)Nc2ccc(OCCO)cc2)cc1
4,62 to 64,CC1(C)COC(c2ccc(Br)cc2)OC1
5,125,O=C(NCc1ccc(F)cc1)c1nc2n(c(=O)c1OCc1ccccc1)CCN2Cc1ccccc1
6,156 to 158,O=C(O)CC1CCc2c(c3ccccc3n2Cc2ccccc2)C1 (stereo not drawn)
7,121 to 122,C=CS(=O)(=O)C(C)(C)S(=O)(=O)C=C
8,36 to 38.5,Cc1ccc(N=C=O)c(S(=O)(=O)Cl)c1
9,56 to 57,CCCCOc1c(NCCCBr)c(=O)c1=O
10,182 to 183,CCC(=O)CN1C(=O)C2(COc3cc4c(cc32)OCCO4)c2ccccc21 (stereo not drawn)
11,235,COC(=O)NNC(=O)c1n[nH]c2cc(OC)c(OC)cc12
12,264 to 267,CCc1nc2cc(OC)c(OC)cc2c(-c2ccc(OC)c(OC)c2)c1C(=O)O
13,215 to 217,Cc1cccc(N2CCN(c3ccnc4sc(C(N)=O)c(N)c34)CC2C)c1 (stereo not drawn)
14,252 to 254,CN(c1ccc(Cl)c2cc(C(N)=O)[nH]c12)S(=O)(=O)c1cccs1
15,107 to 112,O=C(N(CCCc1ccncc1)Cc1ccccc1)N(CCCc1ccccc1)C1CCCCC1
16,179 to 180,O=C1COCCN1CCn1c2ccccc2c2c(N3CCCC3)nc(N3CCCC3)nc21
17,145,c1ccc(-c2nc3ccccn3c2-c2ccnc(-c3ccc(N4CCOCC4)cc3)c2)nc1
18,> 300,COc1cccc2c1sc1[nH]c(=O)c(=O)[nH]c12
19,102,Clc1ncc(Cl)n2ccnc12
20,65 to 66,CCCCCCS(=O)(=O)c1c(O)cc(C)oc1=O
21,123,O=Cc1cc2ccc3c4ccccc4ccc3c2o1
22,99,CC1(C)CCCNc2ccc([N+](=O)[O-])cc21
23,203 to 205,NC(=NO)c1ccncc1
24,120,CCOCC1=C(C(=O)OCC)C(c2ccc(OC)c(F)c2)C(C(=O)OCC)=C(C)N1 (stereo not drawn)
25,145 to 147,CNc1nc(-c2cccc(NC(=O)c3ccccc3)c2)c2cc(O)c(OC)cc2n1

row,melting point [°C],SMILES
1,110 to 111,Cc1ccccc1Oc1cccc2c1OC(=O)C2
2,185,O=C(O)c1ccc(Cl)c2c1OC(F)(F)O2
3,38,CSC(=S)c1cccc([N+](=O)[O-])c1
4,224 to 225,CCc1ccccc1C=C1CCN2Cc3ccccc3N=C12
5,153 to 156,COc1ccc(C2=NN(c3ccccc3)C(c3ccc(NC(=S)Nc4ccccc4)cc3)C2)cc1 (stereo not drawn)
6,153 to 155,Cn1cc(-c2ccc(Cl)cc2)c(=O)c(-c2cccc(C(F)(F)F)c2)c1
7,178 to 180,N#Cc1c2cccccc-2nc1NCCC(c1ccccc1)c1ccccc1
8,78 to 79,CCCOc1ccc(S(=O)(=O)N2CCN(CCOC(=O)c3ccccc3)CC2)cc1-c1nc2c(CCC)cn(CC)c2c(=O)[nH]1
9,208 to 210,CS(=O)(=O)c1ccc(-c2cnn(-c3cccc(Br)c3)c(=O)c2Oc2ccc(F)cc2)cc1
10,112 to 113,CC(=O)Nc1cc2c(cc1[N+](=O)[O-])OC(C)O2 (stereo not drawn)
11,134 to 135,COc1ccc(C2=NN(c3ccccc3)C(=O)[C@H]3CC=CC[C@@H]23)cc1OC1CCCC1 (relative stereo)
12,198,COc1cccc2c1CCCC2=NNc1nc(-c2ccc(F)cc2)cs1
13,260,CC(=O)N1CC2(CCN(C(=O)Nc3nnc(-c4ccccc4)s3)CC2)c2ccccc21
14,67 to 69,CC(C)(C)OC(=O)NCc1cc(-c2cccnc2)no1
15,> 250,Cc1c(C(=O)Nc2ccc(N3CCC(O)CC3)c(C#N)c2)c2cc(F)ccc2n1CC(=O)O
16,129 to 130,CC(C)Oc1ccc(COc2ccc(CC(=O)O)cc2Cl)cc1Cl
17,137 to 140,CN(O)C(=O)c1ccccc1Nc1c(Cl)cccc1Cl
18,> 270,CCn1c(=O)c2[nH]c(/C=C/c3ccccc3OC)nc2n(CC)c1=O
19,127 to 129,CC(=O)OCC1OC(n2cc(C3=C(c4c[nH]c5ncccc45)C(=O)N(COCc4ccccc4)C3=O)c3cccnc32)C(OC(C)=O)C(OC(C)=O)C1OC(C)=O (stereo not drawn)
20,92,O=C(C=Cc1ccc(Cl)cc1)C1(Cl)CC1
21,228,O=C(c1cc(=O)c2ccc(OCc3ccccc3)cc2[nH]1)N1CCC(Cc2ccccc2)CC1
22,75 to 77,CCCc1c(OCCCCSCCC(=O)O)ccc(C(C)=O)c1O
23,148 to 150,N=C(N)c1ccccc1-c1ccccc1
24,51 to 52,CCN(C/C=C/C#CC(C)(C)C)Cc1cccc(N(C)Cc2cccc(-c3ccsc3)c2)c1
25,53 to 54,N#Cc1ccn2ccccc12

row,melting point [°C],SMILES
1,150,c1ccc(COc2ccc(-c3cc(NC(Cc4ccccc4)c4nnn[nH]4)ncn3)cc2)cc1 (stereo not drawn)
2,77.5 to 78.5,Cc1ccc(C(=O)CCCl)cc1
3,184 to 186,COC(=O)CCNC(=O)c1ccc2c(c1)nc(-c1ccc(C(=N)N)cc1)n2CCCCc1ccccc1
4,93 to 94,Clc1ccc2c(ccn2C2=CCN(CCC3Cc4ccccc4C3)CC2)c1
5,93 to 94,COc1ccc(COc2cccc(OC)c2C(=O)C=C(SC)SC)cc1
6,62.6 to 63.5,O=C(O)CCCCCCCCCC#CC#Cc1ccco1
7,109,c1ccc([C@H]2CC[C@@H](Oc3ncnc4c3CCCC4)CC2)cc1
8,106,CCN(CC)C(=O)c1cc(-c2cccc([N+](=O)[O-])c2)c2sccc2c1
9,128 to 129,CN(C)c1ncc2c(=O)n(CCN3CCCCC3)sc2n1
10,238,CC12CCC(CC1=C=C1C=CC(Nc3nc(Cl)nc(Cl)n3)=CC1)C2(C)C (stereo not drawn)
11,> 320,CC(=O)CC(=S)NCC(=O)N1CCC[C@H]1C(=O)O
12,152 to 153,CC1(C)CC(NC(=O)Nc2ccc(C(F)(F)F)cc2)CC(C)(C)C1=O
13,97 to 103,CC(C)(C)N1CC(c2cc(Cl)c(N)c(Cl)c2)OC1=O (stereo not drawn)
14,173 to 175,COc1ccc([C@H](Sc2ccccc2NC(C)=O)[C@@H](O)C(=O)O)cc1
15,120 to 122,C[C@H](NC(=O)c1ccccc1)C(=O)CCl
16,243 to 246,COc1ccc2nc3c([N+](=O)[O-])ccc(Cl)c3c(Cl)c2c1
17,298 to 299,O=C(O)c1cc2c(c(C(=O)O)c1)NCCC2
18,116 to 118,Cc1ccc(CNc2nc(OCC(F)(F)F)nc(Oc3cccc(C(F)(F)F)c3)n2)o1
19,150 to 151,O=C(COc1ccccc1)N[C@H]1C(=O)N[C@H]1C(=O)O (relative stereo)
20,118 to 120,COc1cc2c(CC(=O)O)c(C)n(C(=O)c3ccccc3)c2cc1F
21,116,Cc1c(Br)nc2n1CCc1ccccc1C2=C1CCN(C)CC1
22,247 to 248,N#Cc1cc2c3c(cccc3c1N1CCCC1)C(=O)N(O)C2=O
23,123 to 125,CCCCOc1ccc(-c2ccc3c(c2)C=C(C(=O)OC)CCS3(=O)=O)cc1
24,99 to 100,COc1ccc(CCNC(C)=O)cc1OC
25,> 300,Cc1nn(C)c2c1c(=O)n(-c1ccccc1)c1ncccc21

row,melting point [°C],SMILES
1,149 to 150,CN(C)S(=O)(=O)c1cc2c(c(Cl)c1Cl)OC(C(=O)OCC(=O)O)C2 (stereo not drawn)
2,153 to 155,CSc1ccc(-c2cncn2-c2ccc(S(C)(=O)=O)cc2)cc1
3,162 to 163,CC[C@@H]1c2onc(-c3ccc(Cl)cc3)c2CC[C@H]1C(=O)O (relative stereo)
4,198,CC1(C)C(=O)Oc2ccc3cc(C#N)c(Cn4cncn4)cc3c21
5,130 to 134,Cc1ccccc1C(CCC(=O)O)Oc1cc(OCc2cccnc2)ccc1C#N (stereo not drawn)
6,118 to 119,CC(OC(=O)c1cc(-n2c(=O)cc(C(F)(F)F)n(C)c2=O)ccc1Cl)C1CC1 (stereo not drawn)
7,160 to 163,CC(C)ON=C(c1cccc(O)c1)n1cncn1
8,182,CC(C)(C)c1cc(-c2c(S)ssc2=S)cc(C(C)(C)C)c1O
9,55 to 57,C[Si](C)(C)ON1C(=O)CCC1=O
10,56 to 57,N#CC(C#N)=C1N(CCCN2CCCCC2)CCN1C1CCN(CCF)CC1
11,220 to 221,O=C1NCc2cnc(Nc3ccc(N4CCCCC4CO)cc3)nc2N1C1CCCC1 (stereo not drawn)
12,81 to 82,O=c1c(Cl)nsnc1Cl
13,197 to 199,O=C(O)/C=C/c1cnoc1-c1ccccc1
14,191 to 193,O=C(NCc1ccccn1)Nc1cc(N2CC(Cc3ccccc3)OC2=O)ccn1 (stereo not drawn)
15,103 to 104,CCc1cc2nccc(-c3cccnc3)n2n1
16,257,N#Cc1c(N2CCN(C(=O)c3cccs3)CC2)c2ccsc2n(Cc2ccccc2)c1=O
17,260 to 266,Oc1ccc(-c2cc3cc(O)cc(-c4nnco4)c3o2)cc1
18,45,O=C1c2ccccc2OCN1CCCl
19,> 230,COc1ccc(-c2ccc3[nH]c(C(=O)O)cc3c2)cc1
20,156,COc1ccc(Nc2nc(Cl)nc(NCC3CCCCC3)n2)cc1F
21,163 to 165,CCCCOc1c2c(nc3c1cnn3CC)C(O)c1ccccc1CC2 (stereo not drawn)
22,234 to 235,CC(C)(C(=O)O)c1ccc(CCNC(=O)c2ccc(Cl)cc2)cc1
23,190 to 192,CN(C)CC(=O)N1CCN(Cc2ccc3c(c2)Cc2c(-c4ccsc4)n[nH]c2-3)CC1
24,226 to 229,CCCc1nn(C)c2c(=O)[nH]c(Cc3ccc(S(=O)(=O)N[C@@H](CO)C(N)=O)cc3)nc12

row,SMILES,melting point [°C]
1,CCN1CC=C(c2c[nH]c3ccc([N+](=O)[O-])cc23)CC1,188 to 190
2,CN(C)C(c1ccccc1)C1CCCCC1(O)Cc1cccc(F)c1 (stereo not drawn),146 to 147
3,O=C1c2ccccc2C(=O)N1CC#Cc1ccc2c(c1)C(c1ccccc1F)=NCc1nnc(C(F)(F)F)n1-2,204 to 206
4,Cn1c(C(=O)NC2CCCCC2)nc(-c2ccc(Cl)cc2Cl)c1-c1ccc(Cl)cc1,165
